Results published in patent US20130041005A1, “PHARMACEUTICAL COMPOSITIONS COMPRISING NEUROPILIN INHIBITORS, AND THEIR USE FOR THE PREVENTION AND/OR TREATMENT OF ANGIOGENIC DISORDERS AND CANCERS” (TRAGEX PHARMA, priority 2011, published 2013).

Experiments:
[1] = test system: breast cancer cells (MDA-MB-231); experiment: Motility assay (videomicroscopy), MDA-MB-231; format: cell-based, Human; settings: IC50 concentration, 24 h (FIG. 6)
Method: The dishes were placed in an enclosed warming incubator on the motorized stage of a computer-controlled Eclipse Ti inverted microscope (Nikon Instruments Europe) equipped with a CCD Cool-SNAP HQ2 camera (Roper Scientific, USA) and a PC workstation. The incubator allowed samples to be kept at 37° C. in a humidified atmosphere containing 5% CO2, 95% air. Phase images were recorded at 100× every 5 min simultaneously over several fields from 0 till 24 h (288 frames). Cell motility was tracked and analyzed for at least 25 cells in each field over three independent experiments. The total distance of migration and the speed of migration were analyzed. The degree of persistence of movement was defined as the ratio between the linear distance and the total distance covered by the cells. Image acquisition and analyses were carried out using Metamorph 7 software (Universal Imaging).

[2] = biological target: T1, NRP-1 (Homo sapiens, UniProt O14786); experiment: ELISA inhibition of VEGF binding to NRP-1; settings: for inhibition at 10 µM: compounds at 10 μM
T1 construct: purchased R&D Systems, UK 3870-N1-025
T1 sequence (O14786 22-644 isoform O14786-2 limits assumed): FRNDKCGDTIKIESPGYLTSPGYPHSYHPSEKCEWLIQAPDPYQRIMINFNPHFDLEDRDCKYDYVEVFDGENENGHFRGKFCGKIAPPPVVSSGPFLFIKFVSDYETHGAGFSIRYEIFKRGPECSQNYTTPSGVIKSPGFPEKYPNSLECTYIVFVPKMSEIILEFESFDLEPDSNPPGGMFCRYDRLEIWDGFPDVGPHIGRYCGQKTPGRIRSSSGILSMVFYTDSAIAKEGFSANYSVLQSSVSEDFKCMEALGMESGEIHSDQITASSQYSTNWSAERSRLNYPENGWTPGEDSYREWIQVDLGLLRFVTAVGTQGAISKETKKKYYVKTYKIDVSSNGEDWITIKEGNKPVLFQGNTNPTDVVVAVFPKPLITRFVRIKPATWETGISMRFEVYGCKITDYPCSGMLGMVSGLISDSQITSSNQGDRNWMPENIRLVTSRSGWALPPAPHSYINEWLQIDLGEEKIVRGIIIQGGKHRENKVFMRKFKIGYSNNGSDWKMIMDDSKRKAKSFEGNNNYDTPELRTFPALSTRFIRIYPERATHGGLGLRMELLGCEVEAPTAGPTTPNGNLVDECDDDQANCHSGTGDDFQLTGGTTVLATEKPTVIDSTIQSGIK
Method: Elisa test was performed covering a 96-well microplate (BD Biosciences, France, cat no 353046) surface with 100 μl of 1×PBS, pH 7.4 with Ca^2+ and Mg^2+, (Lonza, France, cat no 17-513F/12) solution containing 0.2 μg/ml of VEGF-R1 (R&D Systems, UK, cat no 321-FL-050/CF) or 2 μg/ml of NRP-1 (R&D Systems, UK, cat no 3870-N1-025) or NRP-2 (R&D Systems, UK, cat no […]). The plate was sealed and incubated overnight at 4° C. After 3 washes with 200 μl of 1×PBS 0.5% (v/v) Tween 20 (Sigma, France, cat no 34078) (Buffer A), the plate was blocked by adding 200 μl of 1×PBS with 0.5% (w/v) BSA (Eurobio, France, cat no GAUBSA01-65) and agitated at 37° C. for 2 h. After washing five times with Buffer A, 50 μl/well of the compounds of the invention at 10 μM were added for the specific signal and 50 μl/well for the non-specific and max binding signal and incubated at 37° C. for 1 hour, shacking. 50 μl of btVEGF (R&D Systems, UK, cat no NFVEO) at […] for NRP-1/4 μg/ml Heparin (Sigma, USA, cat no H3393-10KU), 300 μg/ml for NRP-2 and 100 μg/ml for VEGF-R1 solution was added to each well; the plate was sealed and incubated at 37° C. for 2 h, shacking. The last incubation was carried out, after five washes with Buffer A, adding 100 μl/well Streptavidin-Horseradish Peroxidase (Amersham, Switzerland, cat no RPN4401) diluted 1:8000 with buffer A. After 1 h shacking at 37° C. under obscurity, the plate was washed 5 times with buffer A and 100 μl of SuperSignal west picochemiluminescent substrate (Interchim, USA cat no 34078) were added. Luminescence was quantified with an EnVision™ 2101 Multilabel reader (Perkin Elmer, USA) and the data analyzed by Wallac Envision manager software. Signal is given as relative light units (RLU). Non-specific binding is defined as the signal measured in the absence of receptor coated on the microplate. The specific binding was calculated as the difference between total binding and non-specific binding. The percentage of inhibition was calculated as following: […]

| Structure (SMILES) | motility (migration speed) of cancer cells [1] | IC50 [2] [µM] | inhibition at 10 µM [2] [%] |
| --- | --- | --- | --- |
| Cc1ccc(-c2nc3ccccc3[nH]2)cc1NC(=S)NC(=O)c1ccc2c(c1)OCCO2 [Compound 1, N-[5-(1H-benzimidazol-2-yl)-2-methylphenyl]-N′-(2,3-dihydro-1,4-benzodioxin-6-ylcarbonyl)thiourea] | significant anti-migratory effect | 38 ± 2.08 | 35 ± 4 |
| O=C(NC(=S)Nc1cccc(-c2nc3ccccc3[nH]2)c1)c1ccc2c(c1)OCCO2 [Compound 2, N-[3-(1H-benzimidazol-2-yl)phenyl]-N′-(2,3-dihydro-1,4-benzodioxin-6-ylcarbonyl)thiourea] | significant anti-migratory effect | 34 ± 3.11 | 24 ± 2 |
